Where no end group is shown, it is not given here.
Experiments:
[1] = target: T1, hTS enzyme (human Thymidylate synthase) (Homo sapiens, UniProt P04818); experiment: Peptidic inhibitor Ki value determination vs dUMP and vs mTHF; type: biochemical; conditions: Lineweaver-Burk analysis, FIG. 4
T1 construct: made in house; host or cells: E. coli (printed as 'BL21 strain DH5α'), vector pQE80L

A2780 cells = experiment: Cell growth assay (crystal violet dye); type: cell-based, human; conditions: 10 μM, FIG. 7
Experimental: Cultures were equilibrated with humidified 5% CO2 in air at 37° C.
Cells were seeded into 24-well plates and allowed to attach overnight. Peptides were delivered into cells by means of a peptide delivery system, following the procedures indicated by the manufacturer. On selected days, after removal of the tissue culture medium, cell growth was determined by a modification of the crystal violet dye assay. The extracted dye was proportional to cell number.

T1 sequence (P04818 with tags, fused parts or gaps): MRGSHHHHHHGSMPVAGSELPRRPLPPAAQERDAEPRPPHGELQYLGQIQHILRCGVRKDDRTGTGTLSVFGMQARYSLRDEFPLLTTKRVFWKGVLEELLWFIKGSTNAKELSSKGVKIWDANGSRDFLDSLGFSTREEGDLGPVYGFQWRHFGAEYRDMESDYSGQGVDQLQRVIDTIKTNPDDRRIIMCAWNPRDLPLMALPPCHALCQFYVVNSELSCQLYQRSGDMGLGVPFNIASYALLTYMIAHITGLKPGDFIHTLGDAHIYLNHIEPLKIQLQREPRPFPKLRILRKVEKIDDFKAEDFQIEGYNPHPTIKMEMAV

| type of inhibition (kinetic data) [1] | Sequence | relative activity against A2780 cells (A2780 cells) |
| --- | --- | --- |
| competitive inhibition pattern | DFIHTLGD [SEQ ID NO: 1] | – |
| – | YVVNSELS [SEQ ID NO: 44] | particularly active |

From patent US8916679B2, “Peptides binding to the dimer interface of thymidylate synthase for the treatment of cancer” (Universita′ degli Studi di Modena e Reggio Emilia, priority 2009, dated 2014)
